In patent US6566047B1, “Method for identifying neurite-growth promoting agents” (The Regents of the University of Colorado, priority 1998, dated 2003):
Like-named read-outs stand apart in the source and are kept apart here.

Columns and labels:
12-Lox = assay: Eicosanoid (HETE) generation in GCPs; assay type: biochemical, rat
Procedure: Eicosanoid Assays. Eicosanoid production in GCPs was measured by metabolic labelling from ^14C-AA or ^14C-AA-PC or by mass spectrometric detection. […] To measure Lox activity directly, without PLA2 involvement, ^3H-AA was the substrate of choice. Reactions were stopped by the addition of chloroform/methanol as for the phospholipase assays. Reaction products were extracted as described by Birkle et al., Neuromethods, vol. 7, pp.227-244 (Humana Press, N.J. 1988), spotted on pre-activated si gel 60 TLC plates, and the plates developed in the upper phase of ethyl acetate/isooctane/acetic acid/water (100:60:20:100). AA and HETEs were identified by co-migration with standards. Appropriate bands were counted by liquid scintillation spectrometry.
For mass-spectrometric (MS) identification of HETEs, two different strategies were pursued:
(1) the appropriate bands from non-labelled samples (PC substrate) were scraped from the TLC plate into ether/methanol (9:1) and stored under N2 at −20° C. Authentic 12(S)-HETE, run alongside in the same manner, was used as a standard. Just prior to analysis, samples were passed over an SPE filter to eliminate silica particles, dried under argon, resuspended in 500 μl ethanol, and injected (at 3 μl/min) into a Finnigan LCQ quadrupole ion trap mass spectrometer (Finnigan MAT, San Jose, Calif.) equipped with an electrospray ionization source. All spectra were acquired at a capillary temperature of 80° C., and ion guide voltages were tuned to maximize the abundance of the deprotonated ion species [M-H]^− in negative mode. In order to generate a spectrum, typically 100 single scans were averaged.
(2) For the other strategy (liquid chromatography/tandem MS, LC/MS^2), the reaction substrate consisted of 3.5 μM AA, with the addition of 3.5 μM deuterated AA (AA-D8) plus 1 μCi ^3H-AA to track reaction products by mass and radioactivity, respectively. Reactions were stopped with ice-cold ethanol, the mixtures kept overnight at −20° C. under N2, and the proteins spun out The supernatants were diluted with H2O and loaded onto 1-ml C18 Sep-Pak columns (Varian). After washing with H2O, eicosanoid was eluted with 2 ml methanol. These samples were resolved by reverse-phase HPLC, and the eluted fractions analyzed by tandem MS on-line (MacMillan and Murphy, 1995). Collision-induced decomposition of HETE isomers produced characteristic fragments that were identified at the second MS stage.

growth cone PLC = assay: Phospholipase C assay (DG release) in GCPs; assay type: biochemical, rat; settings: GCPs; thrombin 100 nM; calcium-dependent
Source text: All assays were run in triplicate.

PLA2 = settings: Table 3a, 100 nM
Procedure: Phospholipase Assays. For PLA2 assays, GCPs suspended in modified Ca^2+-free Krebs buffer (10-30 μg protein/assay) were first incubated for 10 min on ice in the presence or absence of effectors. Subsequently, phospholipid substrate (PC, PE or PI) containing radiolabelled AA (7 μM; 50,000 cpm/assay) was added and the reaction carried out at 37° C. for 10 minutes. Typically, assay mixtures contained 10 μM CaCl2; specific modifications are described in the figure legends. For phospholipase C (PLC) assays, conditions were the same when run in parallel with PLA2 assays. When PLC assays were run independently, Ca^2+ was increased to 1 mM. Reactions were terminated by the addition of 3.75 volumes of cold chloroform/methanol (1:2). PLA2 assays also were performed on neurons dissociated from fetal rat cerebral cortex. The assay conditions were the same as those just described for GCPs.
Products recovered in chloroform were loaded onto silica gel 60 TLC plates and developed as described earlier (Nègre-Aminou and Pfenninger, 1993) in hexane/ether/acetic acid (40:60:1). AA and DG were identified on TLC by co-migration with authentic standards. The appropriate bands were excised into scintillation fluid and counted on a Beckman LS 1801 scintillation sprectrometer. All assays were run in triplicate.

GCPs plated on laminin = assay: GCP release (detachment) assay on laminin; design: species or system rat
Procedure: GCP Release Assay. Petri dishes (35 mm diameter) were coated with 10 μg mouse laminin in PBS by incubation at room temperature for 60 min with shaking. Dishes were subsequently rinsed three times with PBS to remove unbound laminin and then blocked with 5% non-fat dry milk (Carnation) in PBS for 30 min. After three PBS rinses to remove blocking agent, the dishes were ready for the addition of GCPs. […] After incubation for five min at 37° C. this buffered GCP preparation was added to the laminincoated petri dishes. Contact with the substratum was facilitated by centrifuging the dishes for 15 min at 5000 g (Beckman JS5.2 rotor) at room temperature, followed by incubation at 37° C. to allow adhesion site formation. After 10 min, unattached GCPs were removed by rinsing the dishes twice with 1× modified Krebs buffer. Plated GCPs were then challenged with repellent factor (TRAP or thrombin) for 20 min at 37° C. The supernatant containing released GCPs was collected and centrifuged for protein determination of the pellet. GCPs that remained attached after repellent treatment were removed with 5% sodium dodecyl sulfate (SDS) for protein assay. Protein was measured according to Lowry et al. (1951) as modified by Peterson (1983). Results of these experiments were expressed as the percentage of released versus total GCP protein in the assay.

thrombin: potent growth cone repellent; commercially available thrombin (Sigma); rat thrombin in Boyden assays
effect on HETE production from AA (12-Lox; 3H-AA substrate): does indeed stimulate HETE production from AA | increase of radioactivity co-migrating with 12-HETE above control (12-Lox; 14C-AA-PC substrate, thrombin 100 nM): approximately 2.5 fold | increase of MS peak at m/z 381 in TLC band co-migrating with 12(S)-HETE (12-Lox; GCPs first stimulated with thrombin): ~2 fold | increase in generation of compound co-migrating with 12(S)-HETE from 14C-AA-labelled phospholipid, relative to controls (12-Lox; growth cones stimulated with thrombin): 4-8 fold | effect on DG release from PI (growth cone PLC): inhibits DG release, rather than stimulating it | net activity (pmol/min/mg protein), intact neurons (PLA2; substrate PE): 26.8 ± 1.9 pmol/min/mg protein | net activity (pmol/min/mg protein), intact neurons (PLA2; substrate PI): 42.5 ± 16 pmol/min/mg protein | effect on GCP detachment from laminin (GCPs plated on laminin; 20 min at 37° C., cytochalasin D 1 μM): detached from the substratum in a dose-dependent maaner | growth cones detached from laminin (GCPs plated on laminin; same thrombin concentrations as cPLA2 assays, in presence of calcium, controls 17%): about 46%
